The assay concerns the target T1, HPK1 kinase (aa1-346, Life Technologies) (Homo sapiens, UniProt Q92918).
T1 construct: HPK1 kinase (aa1-346, Life Technologies); purchased Life Technologies
T1 sequence (Q92918 1-346): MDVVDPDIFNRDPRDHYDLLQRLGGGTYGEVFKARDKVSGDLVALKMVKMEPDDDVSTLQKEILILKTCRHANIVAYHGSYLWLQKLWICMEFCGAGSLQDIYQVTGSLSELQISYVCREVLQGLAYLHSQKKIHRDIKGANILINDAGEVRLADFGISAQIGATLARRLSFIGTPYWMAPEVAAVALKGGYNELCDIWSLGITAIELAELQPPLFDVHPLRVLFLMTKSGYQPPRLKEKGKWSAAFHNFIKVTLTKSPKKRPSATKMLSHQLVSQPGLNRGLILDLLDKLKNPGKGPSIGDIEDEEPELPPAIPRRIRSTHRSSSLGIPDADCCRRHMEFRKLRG
Nature of the assay: HPK Kinase Activity Assay at 1 mM ATP (TR-FRET). As to conditions: HPK1 kinase 40 nM, 0.5 μM STK1 substrate, read-out: Enzymatic activity IC50. The assay is classed as biochemical. As to the method:
HPK Kinase Activity Assay at 1 mM ATP
Compounds disclosed herein were tested for inhibition of HPK1 kinase (aa1-346, Life Technologies) activity in assays based on the time-resolved fluorescence-resonance energy transfer (TR-FRET) methodology. The assays were carried out in 384-well low volume black plates in a reaction mixture containing HPK1 kinase (40 nM), 1 mM ATP, 0.5 μM STK1 substrate and 0-10 μM compound in buffer containing 50 mM HEPES, 0.01% BSA, 0.1 mM Orthovanadate, 10 mM MgCl2, 1 mM DTT, pH=7.0, 0.005% Tween-20. The kinase was incubated with the compounds disclosed herein or DMSO for 60 minutes at room temperature and the reaction was initiated by the addition of ATP and STK1 substrate. After reaction at room temperature for 120 minutes, an equal volume of stop/detection solution was added according to the manufacture's instruction (CisBio). The stop/detection solution contained STK Antibody-Cryptate and XL665-conjugated streptavidin in Detection Buffer. The TR-FRET signals (ratio of fluorescence emission at 665 nm over emission at 620 nm with excitation at 337 nm wavelength) were recorded on a PHERAstar FS plate reader (BMG Labtech). Phosphorylation of STK1 substrate led to the binding of STK Antibody-Cryptate to the biotinylated STK1 substrate, which places fluorescent donor (Eu^3+ crypate) in close proximity to the accepter (Streptavidin-XL665), thus resulting in a high degree of fluorescence resonance energy transfer. The inhibition of HPK1 in presence of increasing concentrations of compounds was calculated based on the ratio of fluorescence at 665 nm to that at 620 nm. The IC50 for each compound was derived from fitting the data to the four-parameter logistic equation by Graphpad Prism software.
(In TR-FRET formats the signal depends on donor and acceptor labels being close together.)

SMILES strings stand for the structures.

With `Cc1cc(-c2c[nH]c3ncc(-c4cc(C)c5c(c4)CC[C@@H]4CN(C)CCN54)nc23)ccc1C(=O)N1CC2(COC2)C1` [Example 8A, (R)-(4-(2-(3,10-dimethyl-2,3,4,4a,5,6-hexahydro-1H-pyrazino[1,2-a]quinolin-8-yl)-5H-pyrrolo[2,3-b]pyrazin-7-yl)-2-methylphenyl)(2-oxa-6-azaspiro[3.3]heptan-6-yl)methanone], the IC50 (as a rule, the concentration needed to halve the response being measured) came to 58 nM.

For `Cc1cc(-c2cnc3[nH]cc(-c4ccc(C(=O)N(C)C)cc4)c3n2)cc2c1N1CCN(C)C[C@@H]1CC2` [Example 7B, (S)-4-(2-(3,10-dimethyl-2,3,4,4a,5,6-hexahydro-1H-pyrazino[1,2-a]quinolin-8-yl)-5H-pyrrolo[2,3-b]pyrazin-7-yl)-N,N-dimethylbenzamide], the IC50 was 22 nM.

In the case of `Cc1cc(-c2cnc3[nH]cc(-c4ccc(C(=O)N(C)C)cc4)c3n2)cc2c1N1CCN(C)C[C@H]1CC2` [Example 7A, (R)-4-(2-(3,10-dimethyl-2,3,4,4a,5,6-hexahydro-1H-pyrazino[1,2-a]quinolin-8-yl)-5H-pyrrolo[2,3-b]pyrazin-7-yl)-N,N-dimethylbenzamide], the half-maximal inhibitory concentration (IC50) stood at 23 nM.

With `Cc1cc(-c2c[nH]c3ncc(-c4cc(C)c5c(c4)CC[C@H]4CN(C)CCN54)nc23)ccc1C(=O)N(C)C` [Example 6B, (S)-4-(2-(3,10-dimethyl-2,3,4,4a,5,6-hexahydro-1H-pyrazino[1,2-a]quinolin-8-yl)-5H-pyrrolo[2,3-b]pyrazin-7-yl)-N,N,2-trimethylbenzamide], the IC50 was found to be 47 nM.

In the case of `Cc1cc(-c2cnc3[nH]cc(-c4ccc(C(=O)N(C)C[C@@H]5CCOC5)cc4)c3n2)cc2c1N1CCN(C)C[C@H]1CC2` [Example 10A, 4-(2-((R)-3,10-dimethyl-2,3,4,4a,5,6-hexahydro-1H-pyrazino[1,2-a]quinolin-8-yl)-5H-pyrrolo[2,3-b]pyrazin-7-yl)-N-methyl-N—(((S)-tetrahydrofuran-3-yl)methyl)benzamide], the IC50 came out at 17 nM.

On to `Cc1cc(-c2cnc3[nH]cc(-c4ccc(C(=O)N(C)CC(C)(C)O)cc4)c3n2)cc2c1N1CCN(C)C[C@H]1CC2` [Example 12A, (R)-4-(2-(3,10-dimethyl-2,3,4,4a,5,6-hexahydro-1H-pyrazino[1,2-a]quinolin-8-yl)-5H-pyrrolo[2,3-b]pyrazin-7-yl)-N-(2-hydroxy-2-methylpropyl)-N-methylbenzamide], for which the IC50 came to 52 nM.

Regarding `Cc1cc(-c2c[nH]c3ncc(-c4cc(C)c5c(c4)CC[C@H]4CN(C)CCN54)nc23)ccc1C(=O)N1CC2(COC2)C1` [Example 8B, (S)-(4-(2-(3,10-dimethyl-2,3,4,4a,5,6-hexahydro-1H-pyrazino[1,2-a]quinolin-8-yl)-5H-pyrrolo[2,3-b]pyrazin-7-yl)-2-methylphenyl)(2-oxa-6-azaspiro[3.3]heptan-6-yl)methanone], the IC50 turned out to be 61 nM.

Consider `Cc1cc(-c2c[nH]c3ncc(-c4cc(C)c5c(c4)CC[C@H]4CN(C)CCN54)nc23)ccc1C(=O)N(C)C[C@@H]1CCOC1` [Example 11B, 4-(2-((S)-3,10-dimethyl-2,3,4,4a,5,6-hexahydro-1H-pyrazino[1,2-a]quinolin-8-yl)-5H-pyrrolo[2,3-b]pyrazin-7-yl)-N,2-dimethyl-N—(((S)-tetrahydrofuran-3-yl)methyl)benzamide], for which the IC50 worked out at 53 nM.

Turning to `Cc1cc(-c2cnc3[nH]cc(-c4ccc(C(=O)N(C)C[C@H](C)O)cc4)c3c2)cc2c1N1CCN(C)C[C@@H]1CC2` [Example 2B, 4-(5-((S)-3,10-dimethyl-2,3,4,4a,5,6-hexahydro-1H-pyrazino[1,2-a]quinolin-8-yl)-1H-pyrrolo[2,3-b]pyridin-3-yl)-N—((S)-2-hydroxypropyl)-N-methylbenzamide], the IC50 amounted to 19 nM.

As to `Cc1cc(-c2cnc3[nH]cc(-c4ccc(C(=O)N(C)C[C@@H](C)O)cc4)c3c2)cc2c1N1CCN(C)C[C@H]1CC2` [Example 3A, 4-(5-((R)-3,10-dimethyl-2,3,4,4a,5,6-hexahydro-1H-pyrazino[1,2-a]quinolin-8-yl)-1H-pyrrolo[2,3-b]pyridin-3-yl)-N—((R)-2-hydroxypropyl)-N-methylbenzamide], the 50% inhibitory concentration (IC50) came to 21 nM.

The record behind these values is patent US12459958B2, “Tricyclic compounds as HPK1 inhibitor and the use thereof” (BEIGENE, LTD., priority 2019, dated 2025).
